Like-named read-outs stand apart in the source and are kept apart here.
Tests used:
U937 cells [1] = assay: LPS-induced IL-8 release in U937 cells; type: cell-based; conditions: Homo sapiens, read-out: DU937 (LPS) IL-8 IC50
Experimental: (§1) LPS-Induced TNF Alpha/IL-8 Release in U937 Cells: Potency U937 cells, human monocytic cell line, were differentiated to macrophage-type cells by incubation with phorbol myristate acetate (PMA; 100 ng/ml) for 48 to 72 hours. Cells were pre-incubated with final concentrations of compound for 2 hrs. […] Coli: O111:B4, Sigma) for 4 hrs, and the supernatant collected for determination of TNFα and IL-8 concentration by sandwich ELISA (Duo-set, R&D systems). […] The inhibition of IL-8 production was calculated at each concentration of test compound by comparison with vehicle control.

p38 MAPK alpha (MAPK14) = molecular target: T1, p38 MAPK alpha (MAPK14) (Homo sapiens, UniProt Q16539); assay: Enzyme inhibition assay, p38 MAPK alpha (FRET, Z-LYTE, via MAPKAP-K2); type: biochemical; conditions: read-out: Enzyme p38α IC50
T1 construct: purchased Invitrogen
T1 sequence (Q16539 whole entry): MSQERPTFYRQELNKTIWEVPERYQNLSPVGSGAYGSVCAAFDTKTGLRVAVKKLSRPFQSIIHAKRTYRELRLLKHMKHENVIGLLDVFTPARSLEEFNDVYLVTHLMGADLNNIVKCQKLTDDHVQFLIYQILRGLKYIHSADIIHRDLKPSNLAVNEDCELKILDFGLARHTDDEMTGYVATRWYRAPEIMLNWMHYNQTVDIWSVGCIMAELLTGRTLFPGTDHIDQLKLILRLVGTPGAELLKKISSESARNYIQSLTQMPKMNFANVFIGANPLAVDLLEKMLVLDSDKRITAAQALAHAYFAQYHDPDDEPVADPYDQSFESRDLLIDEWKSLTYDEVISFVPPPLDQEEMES

[2] = system: Differentiated U937 cells; assay: MTT assay (cell viability); type: cell-based, human
Experimental: MTT Assay Differentiated U937 cells were pre-incubated with compound for 4 hrs in 5% FCS or 10% FCS for 24 hrs. […] After 1 hr incubation, the media were removed, 200 ul of DMSO added to each well and the plates were shaken lightly for 1 h prior to reading the absorbance at 550 nm. The percentage loss of cell viability was calculated for each well relative to vehicle (0.5% DMSO)-treatment. Consequently an apparent increase in cell viability for drug treatment relative to vehicle is tabulated as a negative percentage.

THP-1 cells = assay: LPS-induced TNF alpha release in THP-1 cells; type: cell-based; conditions: Homo sapiens, THP-1, read-out: THP-1 (LPS) TNFα IC50
Experimental: LPS-Induced TNF Alpha Release in THP-1 Cells: Potency […] Coli; O111:B4, Sigma) for 4 hr and the supernatant collected for determination of TNFα concentration by sandwich ELISA (Duo-set, R&D systems). The inhibition of TNFα production was calculated at each concentration by comparison with vehicle control.

BEAS2B cells = assay: Poly I:C-induced ICAM-1 induction in BEAS2B cells; type: cell-based; conditions: Homo sapiens, BEAS-2B, read-out: BEAS2B (polyIC) ICAM1 IC50
Experimental: Poly I:C-Induced ICAM-1 Induction in BEAS2B Cells: Potency Poly I:C (1 ug/ml) (Invivogen Ltd., San Diego, Calif.) was transfected into BEAS2B cells (human bronchial epithelial cells, ATCC) with Oligofectamine (Invitrogen, Carlsbad, Calif.). Cells were pre-incubated with final concentrations of compound for 2 hrs. The level of ICAM1 expression on the cell surface was determined by cell-based ELISA. Briefly, at 18 hrs after poly I:C transfection, cells were fixed with 4% formaldehyde in PBS. After quenching endogenous peroxidase by adding 0.1% sodium azide and 1% hydrogen peroxide, cells were washed with wash-buffer (0.1% Tween in PBS: PBS-Tween). After blocking the wells with 5% milk in PBS-Tween for 1 hr, the cells were incubated with anti-human ICAM-1 antibody (Cell Signaling Technology, Danvers, Mass.) in 1% BSA PBS overnight at 4° C. Cells were washed with PBS-Tween and incubated with the secondary antibody (HRP-conjugated anti-rabbit IgG, Dako Ltd., Glostrup, Denmark). The ICAM-1 signal was detected by adding substrate and reading at 450 nm with a reference wavelength of 655 nm using a spectrophotometer. […] The measured OD 450-655 readings were corrected for cell number by dividing with the OD595 reading in each well.

U937 cells [3] = assay: LPS-induced TNF alpha release in U937 cells; type: cell-based; conditions: Homo sapiens; read-out: DU937 (LPS) TNFα REC50
Experimental: as §1

[4] = Table 1, MTT, loss of cell viability at 1 μg/ml
[5] = Table 1, first MTT column, loss of cell viability at 1 μg/ml
[6] = Table 3, first MTT column, loss of cell viability at 1 μg/ml
[7] = Table 3, second MTT column, loss of cell viability at 1 μg/ml
[8] = Table 2, loss of cell viability at 1 μg/ml
[9] = Table 2, loss of cell viability, test conducted at 10 μg/ml

Row | SMILES | IC50 (U937 cells [1]; Table 1) | IC50 (p38 MAPK alpha (MAPK14); Table 1) | IC50 (THP-1 cells; Table 1) | IC50 (BEAS2B cells; Table 1) | EC50 (U937 cells [3]) | IC50 (U937 cells [1]; Table 3) | IC50 (p38 MAPK alpha (MAPK14); Table 3) | IC50 (THP-1 cells; Table 3) | IC50 (BEAS2B cells; Table 3) | IC50 (U937 cells [1]; Table 2) | IC50 (p38 MAPK alpha (MAPK14); Table 2) | DU937 (cell viability) MTT assay 4 h [2, 8] | DU937 (cell viability) MTT assay 24 h [2, 8] | IC50 (THP-1 cells; Table 2) | IC50 (BEAS2B cells; Table 2) | other results
1 | COCC(=O)Nc1nccc(Oc2ccc(NC(=O)Nc3cc(C(C)(C)C)nn3-c3ccc(C)cc3)c3ccccc23)n1 [Example 65, N-(4-(4-(3-(3-tert-Butyl-1-p-tolyl-1H-pyrazol-5-yl)ureido)naphthalen-1-yloxy)pyrimidin-2-yl)-2-methoxyacetamide] | < 5000 nM | < 5000 nM | < 10 nM | < 5000 nM | < 10 nM | – | – | – | – | – | – | – | – | – | – | DU937 (cell viability) MTT assay 4 h [2, 4]: − (<=30%); DU937 (cell viability) MTT assay 4 h [2, 5]: − (<=30%)
2 | Cc1ccc(-n2nc(C(C)(C)C)cc2NC(=O)Nc2ccc(Oc3ccnc(NC(N)=O)c3)c3ccccc23)cc1 [Example 29, 4-(4-(3-(3-tert-Butyl-1-p-tolyl-1H-pyrazol-5-yl)ureido)naphthalen-1-yloxy)pyridin-2-yl urea] | – | – | – | – | < 10 nM | < 5000 nM | < 10 nM | < 10 nM | < 10 nM | – | – | – | – | – | – | DU937 (cell viability) MTT assay 4 h [2, 6]: − (<=30%); DU937 (cell viability) MTT assay 4 h [2, 7]: − (<=30%)
3 | Cc1ccc(-n2nc(C(C)(C)C)cc2NC(=O)Nc2ccc(Oc3ccnc(NC(=O)N4CCC(O)CC4)c3)c3ccccc23)cc1 [Example 51, N-(4-(4-(3-(3-tert-Butyl-1-p-tolyl-1H-pyrazol-5-yl)ureido)naphthalen-1-yloxy)pyridin-2-yl)-4-hydroxypiperidine-1-carboxamide] | – | – | – | – | < 10 nM | < 10 nM | < 10 nM | < 10 nM | < 10 nM | – | – | – | – | – | – | DU937 (cell viability) MTT assay 4 h [2, 6]: − (<=30%); DU937 (cell viability) MTT assay 4 h [2, 7]: + (>30%)
4 | Cc1ccc(-n2nc(C(C)(C)C)cc2NC(=O)Nc2ccc(Oc3ccnc(NC(=O)CNC(N)=O)c3)c3ccccc23)cc1 [Example 14, N-(4-(4-(3-(3-tert-Butyl-1-p-tolyl-1H-pyrazol-5-yl)ureido)naphthalen-1-yloxy)pyridin-2-yl)-2-ureidoacetamide] | – | – | – | – | < 5000 nM | – | – | – | – | < 5000 nM | < 10 nM | − (<=30%) | − (<=30%) | < 5000 nM | < 5000 nM | –
5 | COCC(=O)Nc1cc(Oc2ccc(NC(=O)Nc3cc(C(C)C)nn3-c3ccc(C)cc3)c3ccccc23)ccn1 [Example 6, N-(4-(4-(3-(3-Isopropyl-1-p-tolyl-1H-pyrazol-5-yl)ureido)naphthalen-1-yloxy)pyridin-2-yl)-2-methoxyacetamide] | – | – | – | – | < 10 nM | – | – | – | – | < 5000 nM | < 10 nM | − (<=30%) | − (<=30%) | < 10 nM | < 5000 nM | –
6 | COCC(=O)Nc1cc(Oc2ccc(NC(=O)Nc3cc(C(C)(C)C)nn3-c3ccc(C)cc3)c3ccccc23)ncn1 [Example 63, N-(6-(4-(3-(3-tert-Butyl-1-p-tolyl-1H-pyrazol-5-yl)ureido)naphthalen-1-yloxy)pyrimidin-4-yl)-2-methoxyacetamide] | < 10 nM | < 10 nM | < 10 nM | < 5000 nM | < 10 nM | – | – | – | – | – | – | – | – | – | – | DU937 (cell viability) MTT assay 4 h ([2]; Table 1, MTT, loss of cell viability, test conducted at 10 μg/ml): +^$ (>30%); DU937 (cell viability) MTT assay 4 h ([2]; Table 1, first MTT column, loss of cell viability, test conducted at 10 μg/ml): −^$ (<=30%)
7 | Cc1ccc(-n2nc(C(C)(C)C)cc2NC(=O)Nc2ccc(Oc3ccnc(NC(=O)N(C)C)n3)c3ccccc23)cc1 [Example 68, 1,1-Dimethyl-3-(4-(4-(3-(3-tert-butyl-1-p-tolyl-1H-pyrazol-5-yl)ureido)naphthalen-1-yloxy)pyrimidin-2-yl)urea] | < 10 nM | < 10 nM | < 5000 nM | < 10 nM | < 10 nM | – | – | – | – | – | – | – | – | – | – | DU937 (cell viability) MTT assay 4 h [2, 4]: − (<=30%); DU937 (cell viability) MTT assay 4 h [2, 5]: − (<=30%)
8 | Cc1ccc(-n2nc(C(C)(C)C)cc2NC(=O)Nc2ccc(Oc3ccnc(NC(=O)CNC(=O)N4CCOCC4)c3)c3ccccc23)cc1 [Example 20, N-(2-(4-(4-(3-(3-tert-Butyl-1-p-tolyl-1H-pyrazol-5-yl)ureido)naphthalen-1-yloxy)pyridin-2-ylamino)-2-oxoethyl)morpholine-4-carboxamide] | – | – | – | – | < 10 nM | – | – | – | – | < 5000 nM | < 10 nM | − (<=30%) | − (<=30%) | < 10 nM | < 5000 nM | –
9 | Cc1ccc(-n2nc(C(C)(C)C)cc2NC(=O)Nc2ccc(Oc3ccnc(NC(=O)CN4CCOCC4)c3)c3ccccc23)cc1 [Example 11, N-(4-(4-(3-(3-tert-Butyl-1-p-tolyl-1H-pyrazol-5-yl)ureido)naphthalen-1-yloxy)pyridin-2-yl)-2-morpholinoacetamide] | – | – | – | – | < 10 nM | – | – | – | – | < 10 nM | < 10 nM | – | – | < 10 nM | < 5000 nM | DU937 (cell viability) MTT assay 4 h [2, 9]: −^$ (<=30%); DU937 (cell viability) MTT assay 24 h [2, 9]: +^$ (>30%)
10 | Cc1ccc(-n2nc(C(C)(C)C)cc2NC(=O)Nc2ccc(Oc3ccnc(NC(N)=O)n3)c3ccccc23)cc1 [Example 66, 3-(4-(4-(3-(3-tert-Butyl-1-p-tolyl-1H-pyrazol-5-yl)ureido)naphthalen-1-yloxy)pyrimidin-2-yl)urea] | < 10 nM | < 5000 nM | < 10 nM | < 5000 nM | < 10 nM | – | – | – | – | – | – | – | – | – | – | DU937 (cell viability) MTT assay 4 h [2, 4]: − (<=30%); DU937 (cell viability) MTT assay 4 h [2, 5]: − (<=30%)
11 | CCNC(=O)Nc1cc(Oc2ccc(NC(=O)Nc3cc(C(C)(C)C)nn3-c3ccc(C)cc3)c3ccccc23)ccn1 [Example 28, N-Ethyl-N′-4-(4-(3-(3-tert-butyl-1-p-tolyl-1H-pyrazol-5-yl)ureido)naphthalen-1-yloxy)pyridin-2-ylurea] | – | – | – | – | < 5000 nM | < 5000 nM | < 5000 nM | < 10 nM | < 5000 nM | – | – | – | – | – | – | DU937 (cell viability) MTT assay 4 h ([2]; Table 3, first MTT column, loss of cell viability, test conducted at 10 μg/ml): −^$ (<=30%); DU937 (cell viability) MTT assay 4 h ([2]; Table 3, second MTT column, loss of cell viability, test conducted at 10 μg/ml): −^$ (<=30%)
12 | COCC(=O)Nc1cc(Oc2ccc(NC(=O)Nc3cc(C(C)(C)C)nn3-c3ccc(C)cc3)cc2C)ccn1 [Example 23, N-(4-(4-(3-(3-tert-Butyl-1-p-tolyl-1H-pyrazol-5-yl)ureido)-2-methylphenoxy)pyridin-2-yl)-2-methoxyacetamide] | – | – | – | – | < 10 nM | – | – | – | – | < 10 nM | < 5000 nM | − (<=30%) | − (<=30%) | < 10 nM | < 5000 nM | –
13 | Cc1ccc(-n2nc(C(C)(C)C)cc2NC(=O)Nc2ccc(Oc3ccnc(NC(=O)N4CCN(C)CC4)c3)c3ccccc23)cc1 [Example 43, N-(4-((4-(3-(3-(tert-Butyl)-1-(p-tolyl)-1H-pyrazol-5-yl)ureido)naphthalen-1-yl)oxy)pyridin-2-yl)-4-methylpiperazine-1-carboxamide] | – | – | – | – | < 10 nM | < 10 nM | < 10 nM | < 10 nM | < 10 nM | – | – | – | – | – | – | DU937 (cell viability) MTT assay 4 h [2, 6]: − (<=30%); DU937 (cell viability) MTT assay 4 h [2, 7]: − (<=30%)

From patent US8299074B2, “P38 MAP kinase inhibitors” (RespiVert Ltd., priority 2008, dated 2012)
